23 molecules from US20260199325A1, “NOVEL SUBSTITUTED PYRAZINE-CARBOXAMIDE-IMIDAZOPYRIDINE DERIVATIVES” (Boehringer Ingelheim International GmbH, priority 2022, published 2026) can be followed below.

The IC50 is the concentration at which inhibition is half-maximal. Read a high IC50 as a need for much substance.

In this experiment the target is T1, human metabotropic Glutamate 4 receptor (Homo sapiens, UniProt Q14833).
T1 construct: expressed in transfected cells; host or cells: HEK293
Put plainly: In vitro testing of mGluR4 potency (Assay A), cAMP HTRF in HEK293 cells. The note with it: Table 2; HEK293 cell overexpressing human mGluR4; 10 uM L-Glutamic acid, 1 uM forskolin. The format is cell-based. Here is the method: A. In Vitro Testing of mGluR4 Potency
The in vitro activity of the compounds according to the invention may be investigated as follows:
The HEK293 cell overexpressing the human metabotropic Glutamate 4 receptor were thawed at 37° C. and immediately diluted with cell culture medium. After centrifugation, the cell pellet is re-suspended in medium and then distributed from a stirred spinner flask into the wells of the assay plate. The plates are incubated for one hour at room temperature before they are incubated for 24 hours at 37° C./5% C02. After washing the cells in the plate three times with 80 uL HBSS/HEPES buffer (10 uL buffer remained in the wells after washing), 5 uL per well of compounds diluted in HBSS/HEPES buffer containing 0.2% BSA (final concentration: 0.1%) and 1 mM IBMX (final concentration: 0.5 mM) are added to the wells of the assay plate. Thereafter 5 uL per well of L-Glutamic acid (final concentration: 10 uM), forskolin (final concentration: 1 uM) and 1 mM IBMX (final concentration: 0.5 mM) dissolved in HBSS/HEPES buffer containing 0.2% BSA (final concentration: 0.1%) are added to the assay plate (final DMSO concentration: 1%). Several wells of the assay plate are used either for the positive and the negative controls or for the cAMP standard curve. The assay plate is incubated for 30 minutes at room temperature. Then 5 ul per well of Anti-cAMP-Antibody-d2 solution and 5 ul per well of cAMP-Europium Cryptate dilution are added to all wells of the plate and the plate is incubated another 60 minutes light protected at room temperature. The emission at 615 nm and 665 nm (Excitation wavelength: 320 nm) are measured on the EnVision™ reader (PerkinElmer). The ratio between the emission at 665 nm and 615 is calculated by the reader. The whole assay is performed in the dark or under green light.
The cAMP standard is prepared by diluting the cAMP stock solution with HBSS/Hepes buffer: 5 μl/well of the cAMP dilutions (in HBSS/Hepes buffer containing 1 mM IBMX and 0.2% BSA-final concentration: 0.5 mM IBMX and 0.1% BSA) are added to 10 ul/well HBSS/Hepes buffer plus 5 ul/well 4% DMSO in HBSS/Hepes containing 0.2% BSA (final DMSO concentration: 1%-like in the wells containing compounds) in the wells of the assay plate. The final cAMP concentrations in the assay plate were: 0, 0.17, 0.69, 2.78, 11.1, 44.5, 178, and 712 nM (two wells/cAMP concentration).
Each assay microtiter plate contained also wells with vehicle controls instead of compound as controls for L-Glutamic acid induced signal (negative control; 100% CTL; 10 uM L-Glutamic acid+1 uM forskolin+0.5 mM IBMX+1% DMSO) and wells with vehicle controls without L-Glutamic acid as controls for non-specific changes in signal (positive control; 0% CTL; 0 uM L-Glutamic acid+1 uM forskolin+0.5 mM IBMX+1% DMSO).
The analysis of the data is performed by the calculation the ratio between the emission at 665 nm and the emission at 615 nm (Em665/Em615 ratio). Thereafter the signals of the compounds are normalized using the positive and negative controls by the following formula:
PoC=100×((Signal Sample−Positive Control)/(Negative Control−Positive Control))
In general terms: In TR-FRET formats the signal depends on donor and acceptor labels being close together.

T1 sequence (Q14833 33-912): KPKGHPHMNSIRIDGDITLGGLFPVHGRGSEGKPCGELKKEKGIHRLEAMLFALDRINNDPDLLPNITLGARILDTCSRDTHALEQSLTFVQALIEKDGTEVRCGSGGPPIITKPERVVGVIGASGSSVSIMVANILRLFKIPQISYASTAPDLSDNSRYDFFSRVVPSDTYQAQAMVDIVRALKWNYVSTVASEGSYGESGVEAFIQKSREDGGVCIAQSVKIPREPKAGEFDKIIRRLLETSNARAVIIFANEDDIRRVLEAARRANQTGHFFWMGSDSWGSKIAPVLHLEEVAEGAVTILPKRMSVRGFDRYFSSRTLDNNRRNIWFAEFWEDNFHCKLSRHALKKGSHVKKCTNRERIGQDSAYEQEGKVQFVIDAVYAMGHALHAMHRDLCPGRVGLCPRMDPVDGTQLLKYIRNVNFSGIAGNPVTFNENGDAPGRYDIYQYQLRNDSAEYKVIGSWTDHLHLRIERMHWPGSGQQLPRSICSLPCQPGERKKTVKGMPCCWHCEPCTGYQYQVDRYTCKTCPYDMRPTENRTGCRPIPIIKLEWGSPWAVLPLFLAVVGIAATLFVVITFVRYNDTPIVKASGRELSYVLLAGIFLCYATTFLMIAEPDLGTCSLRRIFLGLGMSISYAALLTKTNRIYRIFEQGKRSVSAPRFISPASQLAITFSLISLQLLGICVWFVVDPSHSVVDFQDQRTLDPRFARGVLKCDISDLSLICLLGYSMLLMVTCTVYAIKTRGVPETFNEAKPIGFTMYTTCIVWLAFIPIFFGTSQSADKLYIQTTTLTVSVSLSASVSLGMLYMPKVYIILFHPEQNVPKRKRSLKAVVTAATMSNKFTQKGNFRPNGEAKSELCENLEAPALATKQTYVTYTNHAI

The molecule `COC(C)(C)[C@H](NC(=O)c1cnc(C(F)F)cn1)c1nc2c(C)c(C#N)cnc2n1C(C)C` [Example 1, N-[(1R)-1-[6-cyano-7-methyl-3-(propan-2-yl)-3H-imidazo[4,5-b]pyridin-2-yl]-2-methoxy-2-methylpropyl]-5-(difluoromethyl)pyrazine-2-carboxamide] returned an IC50 of 1 nM. The result for `COC(C)(C)[C@H](NC(=O)c1cnc(C)cn1)c1nc2c(C)c(C#N)cnc2n1C(C)C` [Example 2, N-[(IR)-1-[6-cyano-7-methyl-3-(propan-2-yl)-3H-imidazo[4,5-b]pyridin-2-yl]-2-methoxy-2-methylpropyl]-5-methylpyrazine-2-carboxamide] reads 2 nM. The figure for `Cc1cnc(C(=O)N[C@H](c2nc3cc(C(F)(F)F)cnc3n2C(C)C)C2CC2)cn1` [Example 3, N-[(S)-cyclopropyl[3-(propan-2-y1)-6-(trifluoromethyl)-3H-imidazo[4,5-b]pyridin-2-y1]methyl]-5-methylpyrazine-2-carboxamide] is 2 nM; for `Cc1c(C#N)cnc2c1nc([C@@H](NC(=O)c1cnc(C(F)F)cn1)C1CC1)n2C(C)C` [Example 4, N-[(S)-[6-cyano-7-methyl-3-(propan-2-yl)-3H-imidazo[4,5-b]pyridin-2-yl](cyclopropyl)methyl]-5-(difluoromethyl)pyrazine-2-carboxamide] it is 2 nM. The figure for `COc1c(Br)cnc2c1nc([C@@H](NC(=O)c1cnc(C)cn1)C1CC1)n2C(C)C` [Example 5, N-[(S)-[6-bromo-7-methoxy-3-(propan-2-yl)-3H-imidazo[4,5-b]pyridin-2-yl](cyclopropyl)methyl]-5-methylpyrazine-2-carboxamide] is 2 nM. On to `Cc1cnc(C(=O)N[C@@H](CC2CC2)c2nc3cc(C(F)(F)F)cnc3n2C(C)C)cn1` [Example 6, N-[(1S)-2-cyclopropyl-1-[3-(propan-2-yl)-6-(trifluoromethyl)-3H-imidazo[4,5-b]pyridin-2-yl]ethyl]-5-methylpyrazine-2-carboxamide], for which the IC50 is 2 nM. The figure for `Cc1c(C#N)cnc2c1nc([C@@H](NC(=O)c1cnc(C(F)F)cn1)C1CCC1)n2C(C)C` [Example 7, N-[(S)-[6-cyano-7-methyl-3-(propan-2-yl)-3H-imidazo[4,5-b]pyridin-2-yl](cyclobutyl)methyl]-5-(difluoromethyl)pyrazine-2-carboxamide] is 3 nM; for `Cc1cnc(C(=O)N[C@H](c2nc3ccc(C(F)(F)F)nc3n2C(C)C)C2CC2)cn1` [Example 8, N-[(S)-cyclopropyl[3-(propan-2-yl)-5-(trifluoromethyl)-3H-imidazo[4,5-b]pyridin-2-yl]methyl]-5-methylpyrazine-2-carboxamide] it is 3 nM.

Take `COC(C)(C)[C@H](NC(=O)c1cnc(C)cn1)c1nc2cc(Cl)cnc2n1C(C)C` [Example 9, N-[(1R)-1-[6-chloro-3-(propan-2-yl)-3H-imidazo[4,5-b]pyridin-2-yl]-2-methoxy-2-methylpropyl]-5-methylpyrazine-2-carboxamide]: 3 nM corresponded to half-maximal inhibition (IC50). The figure for `Cc1cnc(C(=O)N[C@H](c2nc3cc(Cl)cnc3n2C(C)C)C2CC2)cn1` [Example 10, N-[(S)-[6-chloro-3-(propan-2-yl)-3H-imidazo[4,5-b]pyridin-2-yl](cyclopropyl)methyl]-5-methylpyrazine-2-carboxamide] is 4 nM; for `Cc1c(C#N)cnc2c1nc([C@H](CC1CC1)NC(=O)c1cnc(C(F)F)cn1)n2C(C)C` [Example 11, N-[(1S)-1-[6-cyano-7-methyl-3-(propan-2-yl)-3H-imidazo[4,5-b]pyridin-2-yl]-2-cyclopropylethyl]-5-(difluoromethyl)pyrazine-2-carboxamide] it is 4 nM. The result for `CO[C@H](C)[C@H](NC(=O)c1cnc(C)cn1)c1nc2cc(C(F)(F)F)cnc2n1C(C)C` [Example 12, N-[(1R,2R)-2-methoxy-1-[3-(propan-2-yl)-6-(trifluoromethyl)-3H-imidazo[4,5-b]pyridin-2-yl]propyl]-5-methylpyrazine-2-carboxamide] reads 4 nM; that for `CO[C@H](C)[C@H](NC(=O)c1cnc(C)cn1)c1nc2cc(Cl)cnc2n1C(C)C` [Example 13, N-[(1R,2R)-1-[6-chloro-3-(propan-2-yl)-3H-imidazo[4,5-b]pyridin-2-yl]-2-methoxypropyl]-5-methylpyrazine-2-carboxamide], 4 nM; that for `Cc1cnc(C(=O)N[C@@H](CC2CC2)c2nc3c(C)c(C#N)cnc3n2C(C)C)cn1` [Example 14, N-[(1S)-1-[6-cyano-7-methyl-3-(propan-2-yl)-3H-imidazo[4,5-b]pyridin-2-yl]-2-cyclopropylethyl]-5-methylpyrazine-2-carboxamide], 5 nM. The result for `Cc1cnc(C(=O)N[C@H](c2nc3c(C)c(C#N)cnc3n2C(C)C)C2CCC2)cn1` [Example 15, N-[(S)-[6-cyano-7-methyl-3-(propan-2-yl)-3H-imidazo[4,5-b]pyridin-2-yl](cyclobutyl)methyl]-5-methylpyrazine-2-carboxamide] reads 6 nM; that for `Cc1cnc(C(=O)N[C@H](c2nc3c(C)nc(C(F)(F)F)cc3n2C(C)C)C2CC2)cn1` [Example 16, N-[(S)-cyclopropyl[4-methyl-1-(propan-2-yl)-6-(trifluoromethyl)-1H-imidazo[4,5-c]pyridin-2-yl]methyl]-5-methylpyrazine-2-carboxamide], 13 nM. Regarding `Cc1c(C#N)cnc2c1nc([C@@H](NC(=O)c1cnc(C(F)F)cn1)[C@H]1CCCO1)n2C(C)C` [Example 17, N-[(R)-[6-cyano-7-methyl-3-(propan-2-yl)-3H-imidazo[4,5-b]pyridin-2-yl][(2R)-oxolan-2-yl]methyl]-5-(difluoromethyl)pyrazine-2-carboxamide], the IC50 was found to be 7 nM. The result for `Cc1cnc(C(=O)N[C@@H](C[C@H]2CCCO2)c2nc3c(C)c(C#N)cnc3n2C(C)C)cn1` [Example 18, N-[(1S)-1-[6-cyano-7-methyl-3-(propan-2-yl)-3H-imidazo[4,5-b]pyridin-2-yl]-2-[(2R)-oxolan-2-yl]ethyl]-5-methylpyrazine-2-carboxamide] reads 7 nM. Take `CO[C@H](C)[C@H](NC(=O)c1cnc(C(F)F)cn1)c1nc2c(C)c(C#N)cnc2n1C(C)C` [Example 19, N-[(1R,2R)-1-[6-cyano-7-methyl-3-(propan-2-yl)-3H-imidazo[4,5-b]pyridin-2-yl]-2-methoxypropyl]-5-(difluoromethyl)pyrazine-2-carboxamide]: it took 8 nM to reach half-maximal inhibition (IC50).

With `Cc1c(C#N)cnc2c1nc([C@@H](NC(=O)c1cnc(C(F)F)cn1)[C@@H](C)OC(F)F)n2C(C)C` [Example 20, N-[(1R,2R)-1-[6-cyano-7-methyl-3-(propan-2-yl)-3H-imidazo[4,5-b]pyridin-2-yl]-2-(difluoromethoxy)propyl]-5-(difluoromethyl)pyrazine-2-carboxamide], 8 nM corresponded to half-maximal inhibition (IC50). The result for `Cc1cnc(C(=O)N[C@H](c2nc3c(C)c(C#N)cnc3n2C(C)C)[C@@H](C)OC(F)F)cn1` [Example 21, N-[(1R,2R)-1-[6-cyano-7-methyl-3-(propan-2-yl)-3H-imidazo[4,5-b]pyridin-2-yl]-2-(difluoromethoxy)propyl]-5-methylpyrazine-2-carboxamide] reads 9 nM; that for `Cc1nc(C(F)(F)F)cc2c1nc([C@@H](NC(=O)c1cnc(C(F)F)cn1)C1CC1)n2C(C)C` [Example 22, N-[(S)-cyclopropyl[4-methyl-1-(propan-2-yl)-6-(trifluoromethyl)-1H-imidazo[4,5-c]pyridin-2-yl]methyl]-5-(difluoromethyl)pyrazine-2-carboxamide], 10 nM. The result for `CO[C@@H](C)[C@H](NC(=O)c1cnc(C)cn1)c1nc2cc(Cl)cnc2n1C(C)C` [Example 23, N-[(1R,2S)-1-[6-chloro-3-(propan-2-yl)-3H-imidazo[4,5-b]pyridin-2-yl]-2-methoxypropyl]-5-methylpyrazine-2-carboxamide] reads 10 nM.
